From patent US3982931A, “N,N-di-sec.butyl-benzamide herbicides” (priority 1967, dated 1976)

Assays:
[1] = system: phaseolus vulgaris (bean); test: activity on agrarian species, soil treatment one day after sowing; assay type: in vivo, Phaseolus vulgaris L.
In short: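 Activity on bean was rated from 0 (no difference from control) to 4 (germination prevented or plants fully contained at emergence), with both classes noted for intermediate effects. Soil treatment one day after sowing, at rates of 1, 3, 6, 8, 10, 12 and 14 kg/ha.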

Papmer rhoeas L. = test: herbicidal activity of PA 106 against infesting herbs; assay type: in vivo
From the text: (§1) Method of evaluation of the results (of tests):
(§2) 0 = no activity and no difference with respect to the control;
(§3) 1 slight differences with respect to the control;
(§4) 3 = considerable activity with damages that definitely impair the further development of most of the small plants; an activity degree already useful for practical purposes;
(§5) 4 = maximum of activity with lack of germination or total containment of the small plants in the emerging stage.
(§6) In the case of an intermediate activity between two classes of the scale, both values are recorded with the one which corresponds to the preeminent activity preceding.
(§7) TABLE 3 reports data on the herbicidal activity against infesting herbs, while TABLE 4 reports data concerning the activity on useful species of agricultural cultivations. These tables employ the criterion explained previously. The product was spread on the soil one day after sowing, in quantities of 1, 3, 6, 8, 10, 12 and 14 kg/ha.

Sorghum sp. = test: as above; assay type: in vivo
From the text: as §1, §2, §3, §4, §5, §6, §7

[2] = system: Panichum Dichotomi florum M.; test: as above; assay type: in vivo
From the text: as §1, §2, §3, §4, §5, §6, §7

Portulaca oleracea L. = test: as above; assay type: in vivo
From the text: as §1, §2, §3, §4, §5, §6, §7

Digitaria sanguinalis L. = test: as above; assay type: in vivo
From the text: as §1, §2, §3, §4, §5, §6, §7

solanum Lycopersicum L. = test: activity on agrarian species, soil treatment one day after sowing; assay type: in vivo; settings: 6 kg/ha
From the text: The infesting species and the agrarian species have been indicated in Table 1 by letters, as follows:
M = solanum Lycopersicum L.
as §1, §2, §3, §4, §5
In the case of an intermediate activity between two classes of the scale, both values are recorded with the one which corresponds to the preeminent activity preceding. […]

vicia sativa L. = test: herbicidal activity, soil treatment one day after sowing; assay type: in vivo
In short: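 Pre-emergence soil treatment one day after sowing; activity scored visually on a […] scale against untreated control, from slight difference (1) to no germination or total containment at emergence (4); intermediate activity recorded as both classes, preeminent value first.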

[3] = system: amaranthus retroflexus L.; test: as above; assay type: in vivo
[4] = system: echinocloa crus-galli R.S.; test: as above; assay type: in vivo
[5] = system: triticum vulgare L. (wheat); test: activity on agrarian species, soil treatment one day after sowing; assay type: in vivo
In short: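 Wheat effects rated against untreated control on a 0 (no difference) to 4 (no germination or emergence fully contained) scale, with two-class scores for intermediate activity. Application was to soil one day post-sowing at rates of 1, 3, 6, 8, 10, 12 and 14 kg/ha.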

Gladiolus sp. = test: activity of PA 106 on useful species (treatment after unearthing the tubers); assay type: in vivo
From the text: as §1, §2, §3, §4, §5, §6, §7
In the case of gladiolus, the treatment was carried out after unearthing the tubers.

CCC(C)N(C(=O)c1ccc(Cl)c(Cl)c1)C(C)CC (stereo not shown) [PA106, 3,4-dichloro-N,N-di-sec.butyl-benzamide]
activity on useful species, Table 4 ([1]; 1 kg/ha): 0
activity on useful species, Table 4 ([1]; 3 kg/ha): 0
activity on I, 0-4 scale ([1]; 6 kg/ha): 0
activity on useful species, Table 4 ([1]; 6 kg/ha): 0
activity on useful species, Table 4 ([1]; 8 kg/ha): 0
activity on useful species, Table 4 ([1]; 10 kg/ha): 0
activity on useful species, Table 4 ([1]; 12 kg/ha): 0/1
activity on useful species, Table 4 ([1]; 14 kg/ha): 0/1
herbicidal activity, Table 3 (Papmer rhoeas L.; 1 kg/ha): 0
herbicidal activity, Table 3 (Papmer rhoeas L.; 3 kg/ha): 1
herbicidal activity, Table 3 (Papmer rhoeas L.; 6 kg/ha): 2
herbicidal activity, Table 3 (Papmer rhoeas L.; 8 kg/ha): 3
herbicidal activity, Table 3 (Papmer rhoeas L.; 10 kg/ha): 4
herbicidal activity, Table 3 (Papmer rhoeas L.; 12 kg/ha): 4
herbicidal activity, Table 3 (Papmer rhoeas L.; 14 kg/ha): 4
herbicidal activity, Table 3 (Sorghum sp.; 1 kg/ha): 1
herbicidal activity, Table 3 (Sorghum sp.; 3 kg/ha): 3
herbicidal activity, Table 3 (Sorghum sp.; 6 kg/ha): 4
herbicidal activity, Table 3 (Sorghum sp.; 8 kg/ha): 4
herbicidal activity, Table 3 (Sorghum sp.; 10 kg/ha): 4
herbicidal activity, Table 3 (Sorghum sp.; 12 kg/ha): 4
herbicidal activity, Table 3 (Sorghum sp.; 14 kg/ha): 4
herbicidal activity, Table 3 ([2]; 1 kg/ha): 2
herbicidal activity, Table 3 ([2]; 3 kg/ha): 5/4
herbicidal activity, Table 3 ([2]; 6 kg/ha): 4
herbicidal activity, Table 3 ([2]; 8 kg/ha): 4
herbicidal activity, Table 3 ([2]; 10 kg/ha): 4
herbicidal activity, Table 3 ([2]; 12 kg/ha): 4
herbicidal activity, Table 3 ([2]; 14 kg/ha): 4
herbicidal activity, Table 3 (Portulaca oleracea L.; 1 kg/ha): 0
herbicidal activity, Table 3 (Portulaca oleracea L.; 3 kg/ha): 1/2
herbicidal activity, Table 3 (Portulaca oleracea L.; 6 kg/ha): 3
herbicidal activity, Table 3 (Portulaca oleracea L.; 8 kg/ha): 3/4
herbicidal activity, Table 3 (Portulaca oleracea L.; 10 kg/ha): 4
herbicidal activity, Table 3 (Portulaca oleracea L.; 12 kg/ha): 4
herbicidal activity, Table 3 (Portulaca oleracea L.; 14 kg/ha): 4
herbicidal activity, Table 3 (Digitaria sanguinalis L.; 1 kg/ha): 2/3
herbicidal activity, Table 3 (Digitaria sanguinalis L.; 3 kg/ha): 4/3
herbicidal activity, Table 3 (Digitaria sanguinalis L.; 6 kg/ha): 4
herbicidal activity, Table 3 (Digitaria sanguinalis L.; 8 kg/ha): 4
herbicidal activity, Table 3 (Digitaria sanguinalis L.; 10 kg/ha): 4
herbicidal activity, Table 3 (Digitaria sanguinalis L.; 12 kg/ha): 4
herbicidal activity, Table 3 (Digitaria sanguinalis L.; 14 kg/ha): 4
activity on M, 0-4 scale (solanum Lycopersicum L.): 0
activity on F, 0-4 scale (vicia sativa L.; 2 kg/ha): 0
activity on F, 0-4 scale (vicia sativa L.; 4 kg/ha): 0
activity on F, 0-4 scale (vicia sativa L.; 6 kg/ha): 0
herbicidal activity, Table 3 ([3]; 1 kg/ha): 0
activity on A, 0-4 scale ([3]; 2 kg/ha): 1
herbicidal activity, Table 3 ([3]; 3 kg/ha): 1/2
activity on A, 0-4 scale ([3]; 4 kg/ha): 2
activity on A, 0-4 scale ([3]; 6 kg/ha): 3
herbicidal activity, Table 3 ([3]; 6 kg/ha): 3
herbicidal activity, Table 3 ([3]; 8 kg/ha): 4/3
herbicidal activity, Table 3 ([3]; 10 kg/ha): 4
herbicidal activity, Table 3 ([3]; 12 kg/ha): 4
herbicidal activity, Table 3 ([3]; 14 kg/ha): 4
herbicidal activity, Table 3 ([4]; 1 kg/ha): 0/1
activity on D, 0-4 scale ([4]; 2 kg/ha): 2
herbicidal activity, Table 3 ([4]; 3 kg/ha): 3
activity on D, 0-4 scale ([4]; 4 kg/ha): 3-4
activity on D, 0-4 scale ([4]; 6 kg/ha): 4
herbicidal activity, Table 3 ([4]; 6 kg/ha): 4
herbicidal activity, Table 3 ([4]; 8 kg/ha): 4
herbicidal activity, Table 3 ([4]; 10 kg/ha): 4
herbicidal activity, Table 3 ([4]; 12 kg/ha): 4
herbicidal activity, Table 3 ([4]; 14 kg/ha): 4
activity on useful species, Table 4 ([5]; 1 kg/ha): 0
activity on useful species, Table 4 ([5]; 3 kg/ha): 0
activity on N, 0-4 scale ([5]; 6 kg/ha): 0
activity on useful species, Table 4 ([5]; 6 kg/ha): 0
activity on useful species, Table 4 ([5]; 8 kg/ha): 0/1
activity on useful species, Table 4 ([5]; 10 kg/ha): 0/1
activity on useful species, Table 4 ([5]; 12 kg/ha): 1
activity on useful species, Table 4 ([5]; 14 kg/ha): 1
activity on useful species, Table 4 (Gladiolus sp.; 1 kg/ha): 0
activity on useful species, Table 4 (Gladiolus sp.; 3 kg/ha): 0
activity on useful species, Table 4 (Gladiolus sp.; 6 kg/ha): 0
activity on useful species, Table 4 (Gladiolus sp.; 8 kg/ha): 0
activity on useful species, Table 4 (Gladiolus sp.; 10 kg/ha): 0
activity on useful species, Table 4 (Gladiolus sp.; 12 kg/ha): 0
activity on useful species, Table 4 (Gladiolus sp.; 14 kg/ha): 0
